{"source": "patent US6531459B1", "about": "“Vitamin D derivatives with phosphorus atoms in the side chains” (Schering Aktiengesellschaft, priority 1997, dated 2003)"}
{"biological_target": "T1, vitamin D receptor (Sus scrofa, UniProt A3RGC1)", "T1 construct": "Receptor-containing protein extract is incubated in a test tube with ^3H-calcitriol; from tissue; host or cells: intestines of juvenile pigs (protein extract)", "T1 sequence (A3RGC1 1-427)": "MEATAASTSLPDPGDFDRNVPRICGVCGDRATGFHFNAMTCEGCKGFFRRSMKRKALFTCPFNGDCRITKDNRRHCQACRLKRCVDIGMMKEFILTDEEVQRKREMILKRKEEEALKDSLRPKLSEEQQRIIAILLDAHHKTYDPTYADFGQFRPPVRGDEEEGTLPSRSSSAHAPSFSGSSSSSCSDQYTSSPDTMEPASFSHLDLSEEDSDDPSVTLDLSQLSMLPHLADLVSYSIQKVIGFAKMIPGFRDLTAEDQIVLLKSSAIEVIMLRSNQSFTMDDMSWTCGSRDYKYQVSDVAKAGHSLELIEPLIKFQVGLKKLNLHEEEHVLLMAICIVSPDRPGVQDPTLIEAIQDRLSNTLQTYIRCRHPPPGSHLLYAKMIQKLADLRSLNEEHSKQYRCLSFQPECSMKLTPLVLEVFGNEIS", "assay": "calcitriol-receptor test (competition with 3H-calcitriol)", "type": "binding", "conditions": "concentration of test substance / concentration of calcitriol at 50% competition; pig intestine protein extract, 3H-calcitriol 5×10^−10 mol/l", "method": "It is carried out using a protein extract from the intestines of juvenile pigs. […] Then, the samples are centrifuged at 10,000 g for 5 minutes at 4° C. The supernatant is decanted and measured in a β-counter after 1 hour of equilibration in Picofluor 15™.\nIt is defined as a quotient of the concentrations of the respective test substance and the reference substance, which are necessary for 50% competition:\nKF=Concentration of test substance at 50% competition/Concentration of reference substance at 50% competition"}
{"smiles": "C=C1/C(=C\\C=C2/CCC[C@]3(C)[C@@H]([C@H](C)/C=C/C(=O)CP(=O)(OC)OC)CC[C@@H]23)C[C@@H](O)C[C@@H]1O", "note": "[Compound 5, (5Z,7E,22E)-(1S,3R)-(1,3-Dihydroxy-24-oxo-24a-homo-9,10-secochola-5,7,10(19),22-tetraen-24a-yl)phosphonic acid dimethyl ester]", "KF (competition factor)": 10}
{"smiles": "C=C1/C(=C\\C=C2/CCC[C@]3(C)[C@@H]([C@H](C)/C=C/C(=O)CP(=O)(OCC)OCC)CC[C@@H]23)C[C@@H](O)C[C@@H]1O", "note": "[Compound 9, (5Z,7E,22E)-(1S,3R)-(1,3-Dihydroxy-24-oxo-24a-homo-9,10-secochola-5,7,10(19),22-tetraen-24a-yl)phosphonic acid diethyl ester]", "KF (competition factor)": 10}
{"smiles": "C=C1/C(=C\\C=C2/CCC[C@]3(C)[C@@H]([C@H](C)/C=C/C(=O)CP(=O)(OC(C)C)OC(C)C)CC[C@@H]23)C[C@@H](O)C[C@@H]1O", "note": "[Compound 13, (5Z,7E,22E)-(1S,3R)-(1,3-Dihydroxy-24-oxo-24a-homo-9,10-secochola-5,7,10(19),22-tetraen-24a-yl)phosphonic acid bis(1-methylethyl)ester]", "KF (competition factor)": 6}
{"smiles": "C=C1/C(=C\\C=C2/CCC[C@]3(C)[C@@H]([C@H](C)/C=C/C(CP(=O)(OCC)OCC)P(=O)(OCC)OCC)CC[C@@H]23)C[C@@H](O)C[C@@H]1O", "note": "(stereo partly drawn) [Compound 29, (5Z,7E,22E)-(1S,3R,24ξ)-(1,3-Dihydroxy-24a-homo-9,10-secochola-5,7,10(19),22-tetraene-24,24a-diyl)bis[phosphonic acid diethyl ester]]", "KF (competition factor)": 10}
{"smiles": "C=C1C(=CC=C2CCCC3(C)C2CCC3C(C)C=CC(=O)C(C)(C)P(=O)(OCC)OCC)CC(O)CC1O", "note": "[Compound 53, (5Z,7E,22E)-(1S,3R)-(1,3-Dihydroxy-24-oxo-9,10-secocholesta-5,7,10(19),22-tetraen-25-yl)phosphonic acid diethyl ester]", "KF (competition factor)": 12}
{"smiles": "C=C1/C(=C\\C=C2/CCC[C@]3(C)[C@@H]([C@H](C)/C=C/C(=O)C(CC)(CC)P(=O)(OCC)OCC)CC[C@@H]23)C[C@@H](O)C[C@@H]1O", "note": "[Compound 57, (5Z,7E,22E)-(1S,3R)-(1,3-Dihydroxy-26,27-dimethyl-24-oxo-9,10-secocholesta-5,7,10(19),22-tetraen-25-yl)phosphonic acid diethyl ester]", "KF (competition factor)": 16}
{"smiles": "C=C1C(=CC=C2CCCC3(C)C2CCC3C(C)C=CC(O)P(=O)(OC(C)C)OC(C)C)CC(O)CC1O", "note": "[Compound 65b, (5Z,7E,22E)-(1S,3R,24R)-(1,3,24-trihydroxy-9,10-secochola-5,7,10(19),22-tetraen-24-yl)phosphonic acid-bis(1-methylethyl)ester]", "KF (competition factor)": 10}
